The results in this text go back to patent US20250090437A1, “COSMETIC COMPOUNDING AGENT, COSMETIC AND PRODUCTION METHOD THEREOF” (MIYOSHI OIL & FAT CO., LTD., priority 2019, published 2025).

Series [1] can be described thus: Sensory evaluation on damaged hair after using organic ammonium salt. Set-up: species or system human. The note with it: damaged hair, 80 wt % aqueous solution. How it is done:
Here, an 80 wt % aqueous solution(s) of each of the compounds B11, B12, B23, B26 and B27 (content in terms of anhydride in the cases of the compounds B11, B12 and B23) were prepared and used as samples. Next, one minute was spent in evenly applying 10.0 g of each sample to a bundle of the damaged hairs weighing about 10 g, using a brush; the bundle of the damaged hairs was then left for 5 min. After leaving it for 5 min, the bundle of the damaged hairs was rinsed with a hot water of 40° C. for 30 sec, and evaluated was a finger-combing capability at the time of performing washing. The hair bundle that had been rinsed was then dried with a towel and further subjected to air drying for a day, followed by evaluating items such as elasticity/resilience (feeling by bare hands), cohesiveness, surface smoothness and non-waviness, from the perspective of superiority or inferiority to a test hair bundle(s) uncoated with the sample.

Series [2] in a line: Sensory evaluation on healthy hair after using organic ammonium salt. Also noted: species or system human; key to When washing: Finger-combing capability: ⊚: Superior; ∘: Favorable; Δ: No change; x: Inferior. The note with it: healthy hair, 80 wt % aqueous solution. On the procedure:
Here, an 80 wt % aqueous solution(s) of each of the compounds B11, B12, B23, B26 and B27 (content in terms of anhydride in the cases of the compounds B11, B12 and B23) were prepared and used as samples. Next, one minute was spent in evenly applying 10.0 g of each sample to a bundle of the healthy hairs weighing about 10 g, using a brush; the bundle of the healthy hairs was then left for 5 min. After leaving it for 5 min, the bundle of the healthy hairs was rinsed with a hot water of 40° C. for 30 sec, and evaluated was a finger-combing capability at the time of performing washing. The hair bundle that had been rinsed was then dried with a towel and further subjected to air drying for a day, followed by evaluating items such as flexibility, finger-combing capability, texture, elasticity/resilience (feeling by bare hands), volume increase (visual evaluation), cohesiveness, moist feeling, surface smoothness, non-stickiness (feeling by bare hands) and gloss (visual evaluation), from the perspective of superiority or inferiority to a test hair bundle(s) uncoated with the sample.

A short description of series [3]: Affinity to hair (contact angle). The note with it: 50 wt % aqueous solution; condition B (hair iron, 160° C.).
Series [4] can be described thus: Water retention property and adherability with respect to healthy hair. Also noted: species or system human.
In the next series the test system is Tyrosinase. The series can be described thus: Whitening effect: tyrosinase activity inhibition test. The class given is biochemical. The note with it: compound concentration 500 μg/mL; substrate D, L-DOPA; room temperature for a week. On the procedure: With regard to a 50 wt/% aqueous solution of each of the compounds C46, C49 and C101, a whitening effect was confirmed via a tyrosinase activity inhibition test. Tyrosinase (by SIGMA-ALDRICH) was dissolved with a 67 mM phosphate buffer solution (pH 6.8) so that the concentration of the tyrosinase would be 0.2 mg/mL, thereby obtaining an enzyme solution. Further, a substrate solution was prepared by dissolving 3 mg of D, L-DOPA (by Tokyo Chemical Industry Co., Ltd.) into 10 mL of the 67 mM phosphate buffer solution. […] Next, 80 μL of the substrate solution was quickly added to the preincubated solution, and an absorbance (A1) at 475 nm immediately after the addition of the substrate solution was then measured. Further, after leaving this solution to stand still at room temperature for a week, an absorbance (A2) at 475 nm was again measured.
In addition, as a control, there were prepared samples containing an ultrapure water instead of the compounds of the working examples; and in a similar manner as above, there were measured an absorbance (A3) at 475 nm immediately after the addition of the substrate, and an absorbance (A4) at 475 nm after leaving the solution at room temperature for a week.
An inhibition rate was calculated with the following formula.

A short description of series [5]: Water retention property test 1. The class given is physicochemical. The note with it: 80 wt % aqueous solution. How it is done: A moisture rate after 24 hours was again measured (post-test moisture rate: B), followed by using the formula below to calculate a rate of reduction in moisture so as to evaluate the water retention property. • Pre-test moisture rate: A (%) • Post-test moisture rate: B (%)

The nature of series [6]: Stability of ascorbic acid-based compound (coloration). The class given is physicochemical. Set-up: key to Appearance (Visual evaluation) Immediately after preparatiom / Appearance (Visual evaluation) After 7 days 50° C. / Appearance (Visual evaluation) After 7 days Room temperature: ⊚: Colorless and transparent; ∘: Light yellow; Δ: Yellow; x: Brown to black. The note with it: 33 wt % aqueous solution. On the procedure:
With regard to a 33 wt/% aqueous solution of each of the compounds C46, C49 and C98 to C100 and water, a stability in an aqueous solution condition was visually evaluated. An evaluation method was such that there was prepared a 33 wt % aqueous solution of each of the compounds C46, C49 and C98 to C100, the aqueous solution was then left to stand still at room temperature or in a thermostatic bath of 50° C. for seven days; coloration before and after the still standing was visually confirmed. The evaluation criteria were as follows. • ⊚: Colorless and transparent • ∘: Light yellow • Δ: Yellow • x: Brown to black

Series [7] can be described thus: Water confinement property test (barrier property). The series is classed as physicochemical. The following applies: 80 wt % aqueous solution, 0.01 mL/cm^2 on filter paper, 40° C. and 25% RH, 24 hours. How it is done: Next, 20.0 g of an ion-exchange water was put into a 40 mL pierce vial bottle (by AS ONE Corporation.), followed by removing an inner lid (rubber plug) of the pierce vial bottle, placing on the pierce vial bottle the filter paper to which each sample had been applied, and then plugging the bottle with an outer lid.
Further, Wm1, Wm2, Sm1 and Sm2 in the formula below respectively represent the following numerical values.
Wm1: Weight of ion-exchange water in vial before storage (using filter paper to which only ion-exchange water had been applied)
Wm2: Weight of ion-exchange water in vial after 24 hours (using filter paper to which only ion-exchange water had been applied)
Sm1: Weight of ion-exchange water in vial before storage (using filter paper to which sample had been applied)
Sm2: Weight of ion-exchange water in vial after 24 hours (using filter paper to which sample had been applied)

A short description of series [8]: Water retention property and adherability with respect to damaged hair. Also noted: species or system human. The following applies: concentration 50 wt % (Table 11).
Experimental: In the following evaluations, a human black hair produced by Beaulax Co., Ltd was used as a healthy hair. A damaged hair was prepared by repeatedly having the healthy hair permed and bleached three times.
A damaged hair was prepared by the following method.
A damaged hair was produced by performing these perm treatment and bleach treatment three times.

Regarding `NC(CO)(CO)CO.O=C(O)CO` [Compound B12], in series [1], the “After air drying: Cohesiveness of hair” value is reported as “◯~Δ”, the “After air drying: Elasticity/Resilience” value is “◯~Δ”, the “After air drying: Smoothness of hair surface” value is reported as “◯~Δ” and the “After air drying: Suppression of hair waviness” value is listed as “◯”. For the same molecule, in series [1], the “When washing: Finger-combing capability” value is recorded as “◯~Δ”. Also, in series [2], the “After air drying: Cohesiveness of hair” value is “◯~Δ”, the “After air drying: Elasticity/Resilience” value is listed as “◯~Δ”, the “After air drying: Finger-combing capability” value is “◯~Δ” and the “After air drying: Flexibility” value is “◯~Δ”. Moreover, in [2], the “After air drying: Gloss of hair” value was “◯~Δ”, the “After air drying: Moist feeling” value is recorded as “◯~Δ”, the “After air drying: Non-stickiness of hair surface” value was “◯~Δ” and the “After air drying: Smoothness of hair surface” value was “◯~Δ”. For the same molecule, in series [2], the “After air drying: Texture” value was “◯~Δ” and the “After air drying: Volume increase” value is on record as “◯~Δ”. In addition, in [2] (versus uncoated hair bundle), the “When washing: Finger-combing capability” value is “⊚”. Further, in [3], the “Contact angle of water droplet on treated hair” value is “infiltrated the hair”. The molecule further yielded a Compound adhesion rate in series [4] (healthy hair immersed 60 min in 80 wt % aqueous solution) of 1.6%. The Post-test moisture rate in [4] (healthy hair immersed 60 min in 80 wt % aqueous solution, after 24 hours at 40° C., 35 to 40% RH, pre-test 7.6%) is on record as 5.4%. In series [4] (healthy hair, 80 wt % aqueous solution, 24 hours at 40° C., 35 to 40% RH), the “Rate of reduction in moisture” value turned out to be 29%.

As to `NC(CO)(CO)CO.O=C1OC(C(O)CO)C(O)=C1O` (stereo not shown) [Compound C49], the “Tyrosinase activity inhibition rate” value in the series on Tyrosinase is given as 95.8%. Moreover, in series [5], the “Water retention property test 1 Pre-test moisture rate” value is 20.0%. Also, in series [5] (24 hours at 40° C. and 25% RH), the “Water retention property test 1 Post-test moisture rate” value stood at 19.4% and the “Water retention property test 1 Rate of reduction in moisture” value was determined as 3.0%. For the same molecule, in [6], the “Appearance (Visual evaluation) After 7 days 50° C.” value was “Δ”, the “Appearance (Visual evaluation) After 7 days Room temperature” value is reported as “○” and the “Appearance (Visual evaluation) Immediately after preparatiom” value is reported as “⊚”. In series [6] (room temperature or 50° C., seven days), the “Coloration of aqueous solution (stability)” value is recorded as “significant improvements in coloration”. In addition, the “Water evaporation inhibition rate” value in series [7] is 32.19%.

`CC(O)C(=O)O` (stereo not shown) [lactic acid, reference compound]: the Hair adhesion rate in series [8] was determined as 1.1%; in [4] (healthy hair, concentration 50 wt % (Table 11)), 1.1%.
